Test results from US10300000B2, “Inhibition of melanogenesis by chemically modified curcumins” (The Research Foundation for The State University of New York, priority 2016, dated 2019).
Where two headings read alike, the source gives them in different places.

Columns and labels:
[1] = test system: HEM-DP cells; test: Melanin content quantification in human epidermal melanocytes; type: cell-based; conditions: 48 hours
Description: Primary cultures of human epidermal melanocytes from a darkly pigmented donor were seeded at 2.2×10^5 cells/well in 1.5 ml media in 12-well plates and incubated for 48 hours. The test compounds were added to cultures and controls were treated with 0.16% DMSO, and further incubated for another 48 hours. For evaluation of melanin content, cells in the wells were trypsinized and cell pellets were washed in PBS. After aspiration, 250 μL of 1N NaOH was added and heated to 70° C. to solubilize melanin. The aliquots were then transferred to a 96-well plate and absorbance was read at 475 nm using microplate reader. A portion of the lysate was used to evaluate total protein content using […] bincinchonic acid (BCA) assay (Pierce BCA kit, Thermo Scientific). The absorbance of melanin was normalized to the total protein content for each lysate and reported as % of control.

[2] = test system: αMSH-stimulated B16F10 cells; test: Melanin content in αMSH-stimulated B16F10 cells; type: cell-based, mouse; design: dose or concentration left out as unconfirmed; conditions: αMSH-stimulated B16F10, 48 hours
Description: B16F10 cells were seeded at 1×10^5 cells/well in 12-well plates and incubated for 24 hours. The test compounds were then added in presence or absence of αMSH (100 nM), and further incubated for another 48 hours. For evaluation of melanin content, cells were trypsinized, washed in PBS and then 250 μL of 1N NaOH was added and heated to 70° C. to solubilize melanin. The aliquots were then transferred to a 96-well plate and absorbance was read at 475 nm using microplate reader. The absorbance of melanin was normalized by total protein contents and reported as % of control.

[3] = test system: B16F10 mouse melanoma cells; type: cell-based; conditions: for cell viability: mouse, 48 h
Description: In order to test the four CMCs (CMC2.14, CMC2.24, CMC2.5 and CMC2.23) alongside PC and THC, for their effects on melanin content, we first screened their nontoxic concentrations using MTS cytotoxicity (Promega CellTiter Aqueous One) assay. MTS is a tetrazolium salt which is reduced to purple colored formazan upon reaction with mitochondrial dehydrogenases. Briefly, B16F10 cells were seeded at 4×10^3 cells/well in 96-well plates for 24 hrs. […] Controls were treated with 0.16% DMSO. At the end of 48 hours, medium was aspirated and replaced by 100 μl of fresh media. MTS (20 μl) was added and incubated for 40 minutes and absorbance read at 490 nm using a Versamax® microplate reader. Cell viability was calculated from the absorbance values relative to control groups and expressed in %.

[4] = test system: B16F10 cells; test: Melanin content quantification in B16F10 cells; type: cell-based, mouse; conditions: Mus musculus, B16-F10
Description: B16F10 cells were seeded at 1×10^5 cells/well in 1.5 ml media in 12-well plates and incubated for 24 hours. […] For quantification of melanin content, cells were trypsinized and cell pellets were washed in PBS. Cell pellets were also visually observed for lightening of the intracellular pigment. After aspiration, 250 μL of 1N NaOH was added and heated to 70° C. to solubilize melanin. The aliquots were then transferred to a 96-well plate and absorbance was read at 475 nm using a microplate reader. A portion of the lysate was used to evaluate total protein content using BCA assay. The melanin absorbance was normalized by total protein content and expressed as % of control.

[5] = Copper chelating activity assay (pyrocatechol violet); type: physicochemical; conditions: PV dye method
Description: Metal ion chelation activity can be detected by pyrocatechol violet indicator assay which is similar to that reported in other studies with some modifications [Baek, S-H. et al. 2015]. Briefly, 100 μl of sample containing different concentrations of solutes were mixed with 50 mM sodium acetate buffer (pH 6.0) in a 96 well plate. Control group consisted of buffer only; KA at 500 μM was used as a positive control. Copper sulfate (2 mM; 10 μl) was added to the samples and incubated for 10 minutes. 10 μl of 2 mM pyrocatechol violet was then added and the plate was further incubated for 20 minutes. The absorbance was read at 632 nm using a microplate reader (Versamax). Lower absorbance compared to control was indicative of copper chelation.

[6] = test system: intracellular ROS in B16F10 cells; test: Intracellular ROS assay (H2DCFDA) in B16F10 cells; type: cell-based, mouse; conditions: 48 hours
Description: Intracellular ROS generation was quantified using 2′,7′-dichlorodihydrofluorescein diacetate (H2DCFDA), a non-fluorescent dye which is trapped intracellularly by cleavage by intracellular esterases after reaction with reactive oxygen species (ROS); only the product, DCF, is fluorescent. For measuring intracellular ROS, B16F10 cells were seeded in 24 well plates at 4×10^4 cells/well. After 24 hours, media was aspirated and PC, THC and CMCs were added to the wells at different concentrations and further incubated for 48 hours. At the end of the incubations, the media was aspirated and cells were washed with PBS. DCFDA (Molecular Probes) was dissolved in DMSO to make 10 mM stock. DCFDA dye working stock (50 μM) was prepared by diluting the stock in DMEM (serum-free, phenol-red free and sodium pyruvate free) media and added to cells and further incubated for 45 minutes at 37° C. The cells were then washed with DPBS and fluorescence was read in bottom read mode, using a fluorescence microplate reader (Gemini EM Spectramax, Molecular Devices) set to excitation and emission wavelengths of 485 nm and 535 nm, respectively. Data was expressed as relative fluorescence % of treated vs. control.

[7] = test system: MITF; test: MITF protein levels by cell-based ELISA in B16F10 cells; design: species or system mouse; conditions: B16F10, 10 μM, 48 hours
Description: MITF is the master regulator of melanogenesis and a known transcription factor for tyrosinase gene. The effects of PC and CMCs on micropthalmia transcription factor (MITF) proteins levels were assayed using a cell-based ELISA (LifeSpan Biosciences, Seattle). Briefly, B16F10 cells were cultured in a 96-well plate at 1×10^4 cells/well for 24 hours and then media was replaced with fresh media containing compounds in 0.1% DMSO for further 48 hours. The cells were then fixed and subsequent steps were conducted based on manufacturer instructions. The absorbance of MITF expression levels were normalized by absorbance of crystal violet stain (0.05%) and data was reported as % of control.

[8] = target: T1, cellular tyrosinase in HEM-DP cells (Homo sapiens, UniProt P14679); test: Intracellular tyrosinase activity in human melanocytes; type: cell-based; conditions: 48 hours
T1 construct: endogenous in cells; host or cells: HEM-DP (primary human epidermal melanocytes, darkly pigmented donor)
T1 sequence (P14679 19-529): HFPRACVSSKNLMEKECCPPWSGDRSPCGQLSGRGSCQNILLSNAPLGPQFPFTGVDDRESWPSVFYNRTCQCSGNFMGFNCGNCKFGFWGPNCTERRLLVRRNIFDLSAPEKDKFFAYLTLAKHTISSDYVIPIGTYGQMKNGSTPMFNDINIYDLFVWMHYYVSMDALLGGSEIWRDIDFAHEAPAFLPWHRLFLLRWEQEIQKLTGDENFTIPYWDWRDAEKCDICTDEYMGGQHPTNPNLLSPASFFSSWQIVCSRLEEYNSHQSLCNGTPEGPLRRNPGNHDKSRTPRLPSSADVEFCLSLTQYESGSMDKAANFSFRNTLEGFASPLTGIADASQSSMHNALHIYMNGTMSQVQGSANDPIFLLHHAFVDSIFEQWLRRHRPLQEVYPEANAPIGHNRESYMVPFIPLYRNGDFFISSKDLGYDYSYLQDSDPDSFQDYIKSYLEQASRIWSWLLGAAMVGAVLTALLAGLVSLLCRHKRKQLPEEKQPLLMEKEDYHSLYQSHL
Description: We quantitated the cellular tyrosinase activity of human melanocytes based on established methods. Briefly, human epidermal melanocytes from a darkly pigmented donor (HEM-DP) were cultured in 12-well tissue culture plates at density of 1.5×10^5 cells/well. After 48 hrs. media was changed and test compounds were added, and further incubated for 48 hrs. At the end of treatments, cells were trypsinized and cell pellets were washed in PBS and lysed with lysis buffer under ice for 30 minutes and then centrifuged to remove cellular debris. 50 μl of lysates were then aliquoted in 96-well microplate and 150 μl of freshly prepared 3 mM L-DOPA was added. The absorbance was then measured kinetically at 475 nm every 30 seconds for 30 minutes at 30° C. using microplate reader (Versamax®). The % inhibition of tyrosinase activity was calculated by determining melanin formation rates from the linear range of the slopes of melanin formation over time for the different samples and calculating % inhibition from the measured velocities of melanin formation.

[9] = test system: HaCaT cells; conditions: human, 48 h, 10 μM
Description: Briefly, 2×10^4 cells/well were seeded in 96-well plates and after 24 hours, the compounds at concentrations of 5-25 μM were added to the wells and incubated for 48 hours. Absorbance was read after 1 hour of incubation of plates and results were expressed as % of control.

[10] = test system: normal human dermal fibroblasts (NHDF); test: MTS cytotoxicity test with human dermal fibroblasts; conditions: 48 hours
Description: Briefly 5×10^3 cells/well were plated in 96 wells and compounds added for 48 hours. MTS assay was then conducted and plate incubated for 1 hour and then 100 μl of supernatants were aliquoted into 96 well plates and absorbance read at 490 nm using Versamax microplate reader.

[11] = test system: HEM-DP cells; test: MTS cytotoxicity test with human epidermal melanocytes; type: cell-based; conditions: 5-25 μM, 48 hours
Description: For screening cytotoxicity of PC, THC and CMCs during 48 hours incubation on HEM-DP cells, we conducted MTS cytotoxicity assay. […] MTS reagent was added and incubated for 90 minutes and absorbance was read at 490 nm. The results are expressed as % relative to control.

What does the source list for `O=c1cc(CO)occ1O` [KA, kojic acid, reference compound]?
reduction in melanin content ([1]; 1 mM): 10%; reduction of melanin [2]: 20%

With `COc1cc(/C=C/C(=O)CC(=O)/C=C/c2ccc(O)c(OC)c2)ccc1O` [PC, Curcumin] as the molecule, how does the “cytotoxicity, overall ranking” value [3] read?
The value was “most cytotoxic”.

What about the “increase of cell proliferation” value ([3]; B16F10, 5 μM, 48 hours, MTS) of the same molecule?
Its value is 13%.

And the cell viability ([3]; 20 μM)?
Its cell viability is 24.44%.

And the cell viability ([3]; 25 μM)?
Its cell viability is 16.55%.

What about the inhibition at 10 µM ([4]; B16F10, 10 μM, 48 hours) of the same molecule?
Its inhibition at 10 µM is 32.1%.

And the IC50 ([4]; B16F10 cells exposed for 48 hours, non-linear curve fitting, read-out: IC50-Melanin Inhibition)?
The IC50 was 20.8 µM.

What about the “copper chelating activity” value [5] of the same molecule?
Its value is “did not show any effect”.

What about the “reduction of intracellular ROS” value ([6]; B16F10, 10 μM) of the same molecule?
Its value is 24%.

What about the “inhibition of MITF protein levels” value [7] of the same molecule?
The value was no more than 30%.

And the “effect on melanin content (words)” value ([1]; nontoxic concentrations tested (PC 5 and 10 μM))?
Its value is “did not show any significant difference”.

And the “inhibition of cellular tyrosinase activity” value ([8]; 5 μM)?
The value was “significantly (p<0.01) inhibited”.

And the “inhibition of cellular tyrosinase activity” value ([8]; 10 μM)?
The value was “significantly (p<0.01) inhibited”.

And the cell viability [9]?
Its cell viability is 90.12%.

And the cell viability ([10]; 10 μM, MTS)?
Its cell viability is 71.9%.

And the “toxicity” value ([10]; range tested 5-25 μM)?
Its value is “significantly toxic”.

For `COc1cc(CCC(=O)CC(=O)CCc2ccc(O)c(OC)c2)ccc1O` [THC, Tetrahydrocurcumin], which “reduction of intracellular ROS” value ([6]; B16F10, 5 μM) is on record?
The value was 24%.

And the “cytotoxicity” value [11]?
Its value is “nontoxic”.

And the inhibition at 25 µM ([8]; 25 μM)?
Its inhibition at 25 µM is 24%.
